| Structure (SMILES) | melting point |
| --- | --- |
| Cc1ccccc1C(=O)Nc1ccc(C(=O)N2CCCC(COS(C)(=O)=O)c3ccccc32)cc1 (centres undefined) | 189 to 190 °C |
| CCOC(=O)C1=C(C)NC(C)=C(C(=O)OCC)C1c1cc([N+](=O)[O-])ccc1OCCCCNCC(O)COc1ccccc1 (centres undefined) | 141 to 143 °C |
| CN1C(=O)[C@H](NC(=O)/C=C/c2ccc(Cl)c(Cl)c2)N=C(c2ccccc2)c2ccccc21 | 145 to 147 °C |
| CC(C)(C)c1ccc(C=CC(=O)c2ccc(N3CCN(c4ccncc4)CC3)cc2)cc1 | 213 to 214 °C |
| O=c1c(-c2ccccc2)c(Cn2cnc3c(Cl)ncnc32)oc2ccccc12 | 187 to 190 °C |
| N#CCN1C(=O)N(c2ccc(C#N)c(C(F)(F)F)c2)C(=O)C12CCOCC2 | 210 to 211 °C |
| O=c1ccn2c(n1)CN=C(c1ccccc1)c1cc(Cl)ccc1-2 | 208 to 209 °C |
| COc1ccc2c(c1)CCC1C2CCC2(C)C(O)C(C)CC12 (centres undefined) | 100 to 102 °C |
| Cc1nnc2n1-c1ccc(Cl)cc1C(c1ccccc1Cl)=NN2Cc1ccncc1 | 195 to 196 °C |
| CCc1c(-c2ccc(OCc3ccccc3)cc2)c2c(C(=O)OC)c(C(=O)OC)c3c(OCc4ccccc4)ccc1n32 | 115 to 120 °C |
| O=C(O)CCCc1ccc(-c2ccccc2F)cc1 | 65 to 66 °C |
| N#Cc1cc2c(cc1F)OCC21C(=O)N(Cc2ccccc2C(F)(F)F)c2ccccc21 (centres undefined) | 193 to 195 °C |
| Cc1nnc2c(-c3cccc(C(F)(F)F)c3)cncn12 | 157 to 159 °C |
| NOP(=O)(c1ccccc1)c1ccccc1 | 104 °C |
| O=C(O)C1(Cc2ccccc2)CCN(Cc2ccccc2)CC1 | 262 °C |
| O=C(NC(=O)N1CCC(Cc2ccccc2)CC1)c1ccc2[nH]c(=O)oc2c1 | 174 °C |
| c1ccc(Oc2ncc(-c3cnc(-c4ccccc4)[nH]3)cn2)cc1 | 254 °C |
| N#CCCCCC(=NO)c1ccc(Br)cc1 | 86.5 to 88 °C |
| CCCCCCc1cc2c(s1)-n1c(C)nnc1C(C)N=C2c1ccccc1C (centres undefined) | 83 to 85 °C |
| CCC(C(=O)C(C)C(O)C(C)CCc1c(N=Nc2ccccc2)cc(C)c(O)c1C(=O)O)C1OC(CC)(C2CCC(O)(CC)C(C)O2)CC1C (centres undefined) | 212 to 215 °C |
| c1ccc(CSc2ncccc2-c2ccccc2)cc1 | 99 to 100 °C |

The next lines start with the values.

| melting point | Structure (SMILES) |
| --- | --- |
| 185 to 187 °C | C=C1C(=O)NC(=O)N1c1ccc(Cl)cc1 |
| 160 to 161 °C | Cc1cc(O)ccc1C(=O)O |
| 115 to 119 °C | CC(=O)OC(C(C(=O)C(C)(C)C)n1cncn1)C(Cl)(Cl)Cl (centres undefined) |
| 169 °C | CCOC=Nn1c(NC)n[nH]c1=O |
| 250 to 252 °C | COc1cc2c(Nc3ccc(Br)cc3F)ncnc2cc1OCCCSC |
| 110 to 112 °C | CC(=O)SC(CC(=O)c1ccc(Oc2ccc(C(C)C)cc2)cc1)C(=O)O (centres undefined) |
| 153 to 155 °C | CCCCn1c(=O)n(O)c(=O)c2cc(F)c(N3CCCC3)nc21 |
| 331 to 333 °C | NC(=O)c1nc(-c2cccnc2)nc2c1[nH]c(=O)n2[C@H]1CC[C@H](O)CC1 |
| 140 to 141 °C | CC1=Nc2ccccc2N(Cc2ccccc2)C(=O)C1Cc1ccccc1 (centres undefined) |
| 131 to 132 °C | C=Cc1cc(NC(=O)N2CCN(c3cc(C)cc(C)c3)CC2)c(OC)nc1C |
| 152 to 155 °C | COCC(C)OC(=O)C(=O)Nc1nc(-c2ccccc2)cs1 (centres undefined) |
| 312 to 318 °C | Cc1[nH]cc2c(=O)n(-c3ccc(Cl)cc3)nc-2c1-c1cccc(-c2cccnc2)c1 |
| 212 to 216 °C | COc1nc(C)cc(C(=O)NS(=O)(=O)c2ccccc2[N+](=O)[O-])n1 |
| 205 to 206 °C | CC(NC(=O)Cc1cc(F)cc(F)c1)C(=O)NC1C(=O)NC(C)c2ccccc21 (centres undefined) |
| 81 to 83 °C | COc1ccccc1OCC1SCCN1C(=O)CI (centres undefined) |
| 113 °C | CNc1cc(OCC2CO2)ccc1[N+](=O)[O-] (centres undefined) |
| 237 to 239 °C | CCOC(=O)c1cn(CCO)c2cc(-n3cccc3)c(F)cc2c1=O |
| 153 °C | CCNC(=O)c1ccc(-n2nnc(C(=O)NC3CC3)c2CNCc2ccccc2)cc1 |
